# Laboratory results: patent publication US20210038537A1, “Emodin for Use in Regulating Expression of Proteins Involved in Inflammation” (UNIVERSITY OF SOUTH CAROLINA, priority 2018, published 2021)
# How the values were obtained:
# [1] = tested on: azoxymethane (AOM)/dextran sodium sulfate (DSS) mouse model of colorectal cancer; test: AOM/DSS mouse model of colorectal cancer, tumor number; format: in vivo; settings: emodin 40 mg/Kg via gavage three days a week for 10 weeks; vehicle approximately 7 tumors
# Procedure: Effects of dietary emodin on tumorigenesis were examined in an azoxymethane (AOM)/dextran sodium sulfate (DSS) mouse model of colorectal cancer. Colorectal cancer was developed in mice according to known methods. Briefly, mice received a single injection of AOM (10 mg/Kg) followed by 2 cycles of DSS (2% in the water for 1 week followed by 2 weeks of plain water) as previously described (see, e.g., Tanaka T. Colorectal carcinogenesis: Review of human and experimental animal studies. J Carcinog 2009; 8:5; Enos R T, Velazquez K T, McClellan J L, et al. High-fat diets rich in saturated fat protect against azoxymethane/dextran sulfate sodium-induced colon cancer. American journal of physiology Gastrointestinal and liver physiology 2016; 310:G906-19).
# The mice were administered either emodin or vehicle treatment (n=12) via gavage at a dose of 40 mg/Kg three days a week for the duration of the AOM/DSS protocol (10 weeks).
# [2] = tested on: Apc^min/+ model of intestinal tumorigenesis; test: Apc^min/+ model of intestinal tumorigenesis, polyp number; format: in vivo, mouse; settings: emodin 40 mg/Kg via gavage three days a week for 12 weeks; vehicle approximately 75 polyps
# Procedure: The Apc^min/+ model of intestinal tumorigenesis was utilized to test anti-tumor effects of emodin. Mice were administered emodin or vehicle treatment (n=7/group) via gavage at a dose of 40 mg/Kg three days a week for 12 weeks. Results are illustrated in FIG. 2. As indicated, the vehicle treated group had approximately 75 polyps per mouse, whereas emodin treated mice had less than 40 polyps per mouse.
# MC38 tumors = test: MC38 mouse model of adenocarcinoma, tumor weight; format: in vivo; settings: emodin 40 mg/Kg via gavage three days a week for 4 weeks; vehicle approximately 1,200 mg
# Procedure: The MC38 mouse model of adenocarcinoma was used. Mice (n=4/group) were administered emodin or vehicle treatment via gavage at a dose of 40 mg/Kg three days a week for 4 weeks. Following the 4-week treatment period tumors in the vehicle treated group weighed approximately 1,200 mg, whereas those in the emodin treated group weighed approximately 400 mg.
# [3] = tested on: F4/80+ cells (macrophages) in MC38 colon tumors; test: Macrophage infiltration into MC38 colon tumors by flow cytometry; format: in vivo, mouse; settings: emodin 40 mg/Kg 3 times a week for 4 weeks, tumors of similar sizes
# Procedure: (§1) To test the effects of emodin on TAMs in colorectal cancer, macrophage infiltration into MC38 colon tumors following control or emodin (40 mg/Kg) treatment (3 times a week for 4 weeks) was examined using flow cytometry. Tumors of similar sizes were selected so that emodin effects could be determined independent of any changes in tumor size.
# [4] = tested on: pro-tumor markers (Hif1a, IL-10, IL-6 and MCP-1); test: Pro-tumor marker expression in MC38 tumors; format: in vivo, mouse; settings: emodin 40 mg/Kg
# Procedure: as §1, with “size. […] The effects of emodin on select pro-tumor markers (Hif1a, IL-10, IL-6 and MCP-1) in a tumor was also examined.” for “size.”
# [5] = tested on: MCP-1, TNFα, and NOS2 expression; test: 5FU-induced colon inflammation, inflammatory gene expression by qPCR in a non-disease model; format: in vivo, C57BL/6 mice; settings: 5FU 3 cycles (40 then 20 mg/Kg) plus emodin 40 mg/Kg 3 times per week; vs 5FU plus vehicle
# Procedure: FIG. 6 illustrates the inhibition of 5FU-induced colon inflammation. 5FU treated mice were administered emodin (40 mg/kg 3×wk) or vehicle treatment (n=5). A non-disease phosphate buffer saline (PBS) group was used as a control (n=5). Following 5FU treatment inflammatory mediators were analyzed in the colon via q PCR. *p<0.05.
# The effects of dietary emodin on colon inflammation following 5FU administration were examined in a non-disease model. C57BL/6 mice were assigned to either emodin or control treatment (n=5). […] 5FU or PBS was administered daily for 5-days followed by a 9-day recovery (×3 cycles). The dose of 5FU was 40 mg/Kg in cycle 1 and 20 mg/Kg in cycles 2 and 3. Emodin (40 mg/Kg) was administered 3 times per week for the duration of the 5FU treatment.
# Given the role of inflammation in chemotherapy-induced toxicity, an analysis of inflammatory genes from the intestines was performed.
# 5FU toxicity = test: Functional measures and survival following 5FU administration in a non-disease model; format: in vivo, C57BL/6 mice
# Procedure: Given the positive effects of emodin on inflammation associated with 5FU toxicity, use of emodin was further examined to determine any improvement in quality of life measures with emodin/5FU treatment vs. 5FU treatment alone. The effects of emodin on functional measures and survival following 5FU administration were examined in a non-disease model.
# C57BL/6 mice were assigned to either emodin (40 mg/kg 3×per week; n=9) or vehicle treatment (n=10). 5FU was administered at 40 mg/kg in cycle 1 and 20 mg/kg in cycles 2 and 3. Emodin was administered 3 times per week for the duration of the 5FU treatment.
# Following the final 5FU cycle, mice underwent a mechanical stimulation test and a run to fatigue.
# [6] = following the final 5FU cycle, emodin 40 mg/kg 3x per week
structure (smiles),measurement,setting,value
"Cc1cc(O)c2c(c1)C(=O)c1cc(O)cc(O)c1C2=O [emodin, Emodin]",number of tumors following the 10-week AOM/DSS protocol,[1],approximately 5 tumors
same,polyps per mouse,[2],less than 40 polyps per mouse
same,tumor weight,MC38 tumors,approximately 400 mg
same,F4/80+ cells (macrophages) in colon tumors,[3],significantly reduce
same,relative expression of Hif1a in tumor,[4],decrease in relative marker expression
same,relative expression of IL-6 in tumor,[4],decrease in relative marker expression
same,relative expression of IL-10 in tumor,[4],decrease in relative marker expression
same,relative expression of MCP-1 in tumor,[4],decrease in relative marker expression
same,MCP-1 expression in colon/intestines after 5FU,[5],decrease
same,NOS2 expression in colon/intestines after 5FU,[5],decrease
same,TNFα expression in colon/intestines after 5FU,[5],decrease
same,body weight loss associated with 5FU treatment,5FU toxicity; 3 cycles of 5FU plus emodin 40 mg/kg 3x per week,prevented the body weight loss
same,survival of the 5FU regime,"5FU toxicity; 3 cycles of 5FU plus emodin 40 mg/kg 3x per week, vehicle group 50%",100%
same,5FU induced fatigability (run to fatigue),5FU toxicity; [6],offset
same,5FU induced sensitivity to pain (mechanical stimulation test),5FU toxicity; [6],offset
